Measured values as given in PubChem BioAssay AID1259407 (Chemical Carcinogenesis Research Information System (CCRIS), 2018).
Activity calls are given as the source filed them. No rule for the calls is given here.

Test system: CCRIS mutagenicity, Ames/micronucleus/aberration tests
Assay: CCRIS mutagenicity studies
[1] = Test System: AMES SALMONELLA TYPHIMURIUM, Strain/Indicator: TA98, Metabolic Activation: NONE
[2] = Test System: AMES SALMONELLA TYPHIMURIUM, Strain/Indicator: TA100, Metabolic Activation: NONE
[3] = Test System: E. COLI, Strain/Indicator: WP2 UVRA, Metabolic Activation: NONE
[4] = Test System: AMES SALMONELLA TYPHIMURIUM, Strain/Indicator: TA98, Metabolic Activation: NONE, Method: PREINCUBATION
[5] = Test System: AMES SALMONELLA TYPHIMURIUM, Strain/Indicator: TA100, Metabolic Activation: NONE, Method: PREINCUBATION
[6] = Test System: AMES SALMONELLA TYPHIMURIUM, Strain/Indicator: TA1535, Metabolic Activation: NONE, Method: PREINCUBATION
[7] = Test System: AMES SALMONELLA TYPHIMURIUM, Strain/Indicator: TA1537, Metabolic Activation: NONE, Method: PREINCUBATION
[8] = Test System: MOUSE LYMPHOMA, Strain/Indicator: L5178Y (TK+/TK-), Metabolic Activation: NONE, Method: SUSPENSION/PLATE
[9] = Test System: AMES SALMONELLA TYPHIMURIUM, Strain/Indicator: TA100, Metabolic Activation: RAT, LIVER, S-9, AROCLOR 1254, Method: PREINCUBATION

Q: `CCOP(=S)(OCC(C)C)SCCl` (centres undefined) was tested. Which mutagenic call [1] did it give?
A: The mutagenic call was “inactive; negative”.

Q: What about the mutagenic call (Test System: AMES SALMONELLA TYPHIMURIUM, Strain/Indicator: TA98, Metabolic Activation: NONE, Method: STANDARD PLATE) of the same compound?
A: Its mutagenic call is “inactive; negative”.

Q: And the mutagenic call (Test System: AMES SALMONELLA TYPHIMURIUM, Strain/Indicator: TA98, Metabolic Activation: RAT, LIVER, S-9, SODIUM PHENOBARBITAL, Method: STANDARD PLATE)?
A: The mutagenic call was “inactive; negative”.

Q: What about the mutagenic call (Test System: AMES SALMONELLA TYPHIMURIUM, Strain/Indicator: TA98, Metabolic Activation: S-9) of the same compound?
A: The mutagenic call was “inactive; negative”.

Q: What about the mutagenic call [2] of the same compound?
A: Its mutagenic call is “inactive; negative”.

Q: And the mutagenic call (Test System: AMES SALMONELLA TYPHIMURIUM, Strain/Indicator: TA100, Metabolic Activation: NONE, Method: STANDARD PLATE)?
A: The mutagenic call was “inactive; negative”.

Q: And the mutagenic call (Test System: AMES SALMONELLA TYPHIMURIUM, Strain/Indicator: TA100, Metabolic Activation: RAT, LIVER, S-9, SODIUM PHENOBARBITAL, Method: STANDARD PLATE)?
A: The mutagenic call was “inactive; negative”.

Q: And the mutagenic call (Test System: AMES SALMONELLA TYPHIMURIUM, Strain/Indicator: TA100, Metabolic Activation: S-9)?
A: Its mutagenic call is “inactive; negative”.

Q: What about the mutagenic call (Test System: E. COLI, Strain/Indicator: WP2, Metabolic Activation: NONE) of the same compound?
A: The mutagenic call was “inactive; negative”.

Q: What about the mutagenic call (Test System: E. COLI, Strain/Indicator: WP2, Metabolic Activation: RAT, LIVER, S-9, SODIUM PHENOBARBITAL, Method: STANDARD PLATE) of the same compound?
A: Its mutagenic call is “inactive; negative”.

Q: And the mutagenic call (Test System: E. COLI, Strain/Indicator: WP2, Metabolic Activation: S-9)?
A: Its mutagenic call is “inactive; negative”.

Q: And the mutagenic call [3]?
A: The mutagenic call was “inactive; negative”.

Q: What about the mutagenic call (Test System: E. COLI, Strain/Indicator: WP2 UVRA, Metabolic Activation: RAT, LIVER, S-9, SODIUM PHENOBARBITAL, Method: STANDARD PLATE) of the same compound?
A: The mutagenic call was “inactive; negative”.

Q: And the mutagenic call (Test System: E. COLI, Strain/Indicator: WP2 UVRA, Metabolic Activation: S-9)?
A: The mutagenic call was “inactive; negative”.

Q: How did the mutagenic call [4] turn out when `Clc1cccc(Cl)c1NC1=NCCN1` was run?
A: Its mutagenic call is “inactive; negative”.

Q: And the mutagenic call (Test System: AMES SALMONELLA TYPHIMURIUM, Strain/Indicator: TA98, Metabolic Activation: S-9, Method: PREINCUBATION)?
A: The mutagenic call was “inactive; negative”.

Q: What about the mutagenic call [5] of the same compound?
A: Its mutagenic call is “inactive; negative”.

Q: And the mutagenic call (Test System: AMES SALMONELLA TYPHIMURIUM, Strain/Indicator: TA100, Metabolic Activation: S-9, Method: PREINCUBATION)?
A: Its mutagenic call is “inactive; negative”.

Q: What about the mutagenic call [6] of the same compound?
A: The mutagenic call was “inactive; negative”.

Q: And the mutagenic call (Test System: AMES SALMONELLA TYPHIMURIUM, Strain/Indicator: TA1535, Metabolic Activation: S-9, Method: PREINCUBATION)?
A: Its mutagenic call is “inactive; negative”.

Q: What about the mutagenic call [7] of the same compound?
A: Its mutagenic call is “inactive; negative”.

Q: And the mutagenic call (Test System: AMES SALMONELLA TYPHIMURIUM, Strain/Indicator: TA1537, Metabolic Activation: S-9, Method: PREINCUBATION)?
A: Its mutagenic call is “inactive; negative”.

Q: What about the mutagenic call (Test System: E. COLI, Strain/Indicator: WP2 UVRA, Metabolic Activation: NONE, Method: PREINCUBATION) of the same compound?
A: Its mutagenic call is “inactive; negative”.

Q: What about the mutagenic call (Test System: E. COLI, Strain/Indicator: WP2 UVRA, Metabolic Activation: S-9, Method: PREINCUBATION) of the same compound?
A: Its mutagenic call is “inactive; negative”.

Q: What about the mutagenic call (Test System: UDS RAT HEPATOCYTES, Strain/Indicator: THY INCORP, Metabolic Activation: NONE, Method: IN VIVO-IN VITRO) of the same compound?
A: Its mutagenic call is “inactive; negative”.

Q: With `OCc1c[nH]c2ccccc12` as the compound, how does the mutagenic call (Test System: Ames Salmonella typhimurium, Strain/Indicator: TA98, Metabolic Activation: None, Method: Plate incorporation) read?
A: Its mutagenic call is “inactive; negative”.

Q: What about the mutagenic call (Test System: Ames Salmonella typhimurium, Strain/Indicator: TA98, Metabolic Activation: None, Method: Preincubation) of the same compound?
A: Its mutagenic call is “inactive; negative”.

Q: What about the mutagenic call (Test System: Ames Salmonella typhimurium, Strain/Indicator: TA98, Metabolic Activation: Rat, Liver, S-9, Aroclor 1254, Method: Plate incorporation) of the same compound?
A: Its mutagenic call is “inactive; negative”.

Q: And the mutagenic call (Test System: Ames Salmonella typhimurium, Strain/Indicator: TA98, Metabolic Activation: Rat, Liver, S-9, Aroclor 1254, Method: Preincubation)?
A: Its mutagenic call is “inactive; negative”.

Q: What about the mutagenic call [8] of the same compound?
A: Its mutagenic call is “active; positive. reevaluation of results: positive”.

Q: What about the mutagenic call (Test System: MOUSE LYMPHOMA, Strain/Indicator: L5178Y (TK+/TK-), Metabolic Activation: RAT, LIVER, S-9, AROCLOR 1254, Method: SUSPENSION/PLATE) of the same compound?
A: Its mutagenic call is “active; positive. reevaluation of results: positive”.

Q: Which mutagenic call (Test System: AMES SALMONELLA TYPHIMURIUM, Strain/Indicator: TA98, Metabolic Activation: HAMSTER, LIVER, S-9, AROCLOR 1254 (30%), Method: PREINCUBATION) does the source give for `ClC(Cl)c1ccccc1` here?
A: The mutagenic call was “inactive; negative”.

Q: And the mutagenic call [4]?
A: Its mutagenic call is “active; positive”.

Q: What about the mutagenic call (Test System: AMES SALMONELLA TYPHIMURIUM, Strain/Indicator: TA98, Metabolic Activation: RAT, LIVER, S-9, AROCLOR 1254 (30%), Method: PREINCUBATION) of the same compound?
A: Its mutagenic call is “active; positive”.

Q: And the mutagenic call (Test System: AMES SALMONELLA TYPHIMURIUM, Strain/Indicator: TA100, Metabolic Activation: HAMSTER, LIVER, S-9, AROCLOR 1254 (30%), Method: PREINCUBATION)?
A: The mutagenic call was “active; positive”.

Q: And the mutagenic call [5]?
A: The mutagenic call was “active; positive”.

Q: What about the mutagenic call (Test System: AMES SALMONELLA TYPHIMURIUM, Strain/Indicator: TA100, Metabolic Activation: RAT, LIVER, S-9, AROCLOR 1254 (30%), Method: PREINCUBATION) of the same compound?
A: The mutagenic call was “active; positive”.

Q: And the mutagenic call [9]?
A: Its mutagenic call is “active; positive”.

Q: For `O=C(O)C1C(C(=O)O)C2(Cl)C(Cl)=C(Cl)C1(Cl)C2(Cl)Cl` (centres undefined), which mutagenic call (End Point: IN VITRO CHROMOSOMAL ABERRATIONS, Test System: CHINESE HAMSTER LUNG FIBROBLAST CELLS (CHL/IU), Metabolic Activation: RAT, LIVER, S-9, PHENOBARBITAL AND 5,6-BENZOFLAVONE) is on record?
A: Its mutagenic call is “active; positive (structural changes)”.

Q: And the mutagenic call (Test System: AMES SALMONELLA TYPHIMURIUM, Strain/Indicator: TA98, Metabolic Activation: HAMSTER, LIVER, S-9, AROCLOR 1254, Method: PREINCUBATION)?
A: Its mutagenic call is “inactive; negative”.

Q: What about the mutagenic call [4] of the same compound?
A: Its mutagenic call is “inactive; negative”.

Q: What about the mutagenic call (Test System: AMES SALMONELLA TYPHIMURIUM, Strain/Indicator: TA98, Metabolic Activation: RAT, LIVER, S-9, AROCLOR 1254, Method: PREINCUBATION) of the same compound?
A: Its mutagenic call is “inactive; negative”.

Q: And the mutagenic call (Test System: AMES SALMONELLA TYPHIMURIUM, Strain/Indicator: TA100, Metabolic Activation: HAMSTER, LIVER, S-9, AROCLOR 1254, Method: PREINCUBATION)?
A: The mutagenic call was “inactive; negative”.

Q: What about the mutagenic call [5] of the same compound?
A: Its mutagenic call is “inactive; negative”.

Q: And the mutagenic call [9]?
A: The mutagenic call was “inactive; negative”.

Q: And the mutagenic call (Test System: AMES SALMONELLA TYPHIMURIUM, Strain/Indicator: TA1535, Metabolic Activation: HAMSTER, LIVER, S-9, AROCLOR 1254, Method: PREINCUBATION)?
A: Its mutagenic call is “inactive; negative”.

Q: What about the mutagenic call [6] of the same compound?
A: Its mutagenic call is “inactive; negative”.

Q: What about the mutagenic call (Test System: AMES SALMONELLA TYPHIMURIUM, Strain/Indicator: TA1535, Metabolic Activation: RAT, LIVER, S-9, AROCLOR 1254, Method: PREINCUBATION) of the same compound?
A: Its mutagenic call is “inactive; negative”.

Q: What about the mutagenic call (Test System: AMES SALMONELLA TYPHIMURIUM, Strain/Indicator: TA1537, Metabolic Activation: HAMSTER, LIVER, S-9, AROCLOR 1254, Method: PREINCUBATION) of the same compound?
A: Its mutagenic call is “inactive; negative”.

Q: And the mutagenic call [7]?
A: Its mutagenic call is “inactive; negative”.

Q: What about the mutagenic call (Test System: AMES SALMONELLA TYPHIMURIUM, Strain/Indicator: TA1537, Metabolic Activation: RAT, LIVER, S-9, AROCLOR 1254, Method: PREINCUBATION) of the same compound?
A: The mutagenic call was “inactive; negative”.

Q: And the mutagenic call (Test System: MOUSE LYMPHOMA, Strain/Indicator: L5178Y (TK+/TK-), Metabolic Activation: NONE, Method: MICROWELL)?
A: The mutagenic call was “active; positive”.

Q: What about the mutagenic call [8] of the same compound?
A: Its mutagenic call is “active; positive”.

Q: And the mutagenic call (Test System: MOUSE LYMPHOMA, Strain/Indicator: L5178Y (TK+/TK-), Metabolic Activation: S-9, Method: MICROWELL)?
A: The mutagenic call was “active; positive”.

Q: What does the source list for `NC(=O)CN1CC(O)CC1=O` (centres undefined)?
A: mutagenic call [1]: inactive; negative; mutagenic call (Test System: AMES SALMONELLA TYPHIMURIUM, Strain/Indicator: TA98, Metabolic Activation: RAT, LIVER, S-9, AROCLOR 1254): inactive; negative; mutagenic call [2]: inactive; negative; mutagenic call (Test System: AMES SALMONELLA TYPHIMURIUM, Strain/Indicator: TA100, Metabolic Activation: RAT, LIVER, S-9, AROCLOR 1254): inactive; negative; mutagenic call (Test System: AMES SALMONELLA TYPHIMURIUM, Strain/Indicator: TA1535, Metabolic Activation: NONE): inactive; negative; mutagenic call (Test System: AMES SALMONELLA TYPHIMURIUM, Strain/Indicator: TA1535, Metabolic Activation: RAT, LIVER, S-9, AROCLOR 1254): inactive; negative; mutagenic call (Test System: AMES SALMONELLA TYPHIMURIUM, Strain/Indicator: TA1537, Metabolic Activation: NONE): inactive; negative; mutagenic call (Test System: AMES SALMONELLA TYPHIMURIUM, Strain/Indicator: TA1537, Metabolic Activation: RAT, LIVER, S-9, AROCLOR 1254): inactive; negative; mutagenic call [3]: inactive; negative; mutagenic call (Test System: E. COLI, Strain/Indicator: WP2 UVRA, Metabolic Activation: RAT, LIVER, S-9, AROCLOR 1254): inactive; negative
